Measured values published in patent US10004701B2, “Methods and compositions for treating infection” (UNIVERSITY OF ROCHESTER, priority 2012, dated 2018).
Counter-ions that a name gives are not always drawn. Like-named read-outs stand apart in the source and are kept apart here.

Legend:
Test in all cases: AK assay 384-well format, Prestwick library screening
[1] = tested on: A. baumannii strain 98-37-09; format: cell-based, Acinetobacter baumannii; settings: 50 μM final drug concentration; for fold induction at 50 µM: Acinetobacter baumannii, 983709, 3 h
P. aeruginosa = format: cell-based, Pseudomonas aeruginosa; settings: 50 μM final drug concentration; for fold induction at 50 µM: Pseudomonas aeruginosa, 3 h
E. coli = format: cell-based, Escherichia coli; settings: 50 μM final drug concentration; for fold induction at 50 µM: Escherichia coli, 3 h
[2] = tested on: S. aureus strain USA300-0114; format: cell-based, Staphylococcus aureus; settings: 50 μM final drug concentration; for fold induction at 50 µM: Staphylococcus aureus, USA300, 3 h
E. cloacae = format: cell-based, Enterobacter cloacae; settings: 50 μM final drug concentration; for fold induction at 50 µM: Enterobacter cloacae, 3 h
E. faecium = format: cell-based, Enterococcus faecium; settings: 50 μM final drug concentration; for fold induction at 50 µM: Enterococcus faecium, 3 h
K. pneumoniae = format: cell-based, Klebsiella pneumoniae; settings: 50 μM final drug concentration; for fold induction at 50 µM: Klebsiella pneumoniae, 3 h
[3] = 384-well format, cutoff for positive-scoring molecules 3-fold increase

CCC(=O)O[C@@](Cc1ccccc1)(c1ccccc1)[C@@H](C)CN(C)C [Levopropoxyphene napsylate]
fold induction at 50 µM ([1]; […], read-out: AK-based Prestwick Library Screening Results, A. baumannii (fold increase in extracellular AK activity)): 0.7 | fold induction at 50 µM (P. aeruginosa; […], read-out: AK-based Prestwick Library Screening Results, P. aeruginosa (fold increase in extracellular AK activity)): 0.7 | fold induction at 50 µM (E. coli; […], read-out: AK-based Prestwick Library Screening Results, E. coli (fold increase in extracellular AK activity)): 0.6 | fold induction at 50 µM ([2]; […], read-out: AK-based Prestwick Library Screening Results, S. aureus (fold increase in extracellular AK activity)): 0.6 | fold induction at 50 µM (E. cloacae; […], read-out: AK-based Prestwick Library Screening Results, E. cloacae (fold increase in extracellular AK activity)): 0.7 | fold induction at 50 µM (E. faecium; […], read-out: AK-based Prestwick Library Screening Results, E. faecium (fold increase in extracellular AK activity)): 1 | fold induction at 50 µM (K. pneumoniae; […], read-out: AK-based Prestwick Library Screening Results, K. pneumoniae (fold increase in extracellular AK activity)): 0.6

Nc1nc2c(ncn2COCCO)c(=O)[nH]1 [Acyclovir]
fold induction at 50 µM ([1]; 384-well format, cutoff for positive-scoring molecules 3-fold increase, read-out: AK-based Prestwick Library Screening Results, A. baumannii (increase in extracellular AK activity)): 0.4 | fold induction at 50 µM (P. aeruginosa; 384-well format, cutoff for positive-scoring molecules 3-fold increase, read-out: AK-based Prestwick Library Screening Results, P. aeruginosa (increase in extracellular AK activity)): 0.4 | fold induction at 50 µM (E. coli; 384-well format, cutoff for positive-scoring molecules 3-fold increase, read-out: AK-based Prestwick Library Screening Results, E. coli (increase in extracellular AK activity)): 0.5 | fold induction at 50 µM ([2]; 384-well format, cutoff for positive-scoring molecules 3-fold increase, read-out: AK-based Prestwick Library Screening Results, S. aureus (increase in extracellular AK activity)): 0.5 | fold induction at 50 µM (E. cloacae; 384-well format, cutoff for positive-scoring molecules 3-fold increase, read-out: AK-based Prestwick Library Screening Results, E. cloacae (increase in extracellular AK activity)): 0.3 | fold induction at 50 µM (E. faecium; 384-well format, cutoff for positive-scoring molecules 3-fold increase, read-out: AK-based Prestwick Library Screening Results, E. faecium (increase in extracellular AK activity)): 0.9 | fold induction at 50 µM (K. pneumoniae; 384-well format, cutoff for positive-scoring molecules 3-fold increase, read-out: AK-based Prestwick Library Screening Results, K. pneumoniae (increase in extracellular AK activity)): 0.5

c1ccc(CNc2ncnc3[nH]cnc23)cc1 [Aminopurine, 6-benzyl]
AK-based Prestwick Library Screening Results, A. baumannii (increase in extracellular AK activity) [1, 3]: 0.8 | AK-based Prestwick Library Screening Results, P. aeruginosa (increase in extracellular AK activity) (P. aeruginosa; [3]): 0.9 | AK-based Prestwick Library Screening Results, E. coli (increase in extracellular AK activity) (E. coli; [3]): 0.9 | AK-based Prestwick Library Screening Results, S. aureus (increase in extracellular AK activity) [2, 3]: 0.7 | AK-based Prestwick Library Screening Results, E. cloacae (increase in extracellular AK activity) (E. cloacae; [3]): 1.1 | AK-based Prestwick Library Screening Results, E. faecium (increase in extracellular AK activity) (E. faecium; [3]): 0.9 | AK-based Prestwick Library Screening Results, K. pneumoniae (increase in extracellular AK activity) (K. pneumoniae; [3]): 0.8

CN1CCC(OC(c2ccccc2)c2ccccc2)CC1 [Diphenylpyraline hydrochloride]
fold induction at 50 µM ([1]; cutoff for positive-scoring molecules 3-fold increase, read-out: AK-based Prestwick Library Screening Results, A. baumannii (fold increase in extracellular AK activity)): 1.3 | fold induction at 50 µM (P. aeruginosa; cutoff for positive-scoring molecules 3-fold increase, read-out: AK-based Prestwick Library Screening Results, P. aeruginosa (fold increase in extracellular AK activity)): 1.1 | fold induction at 50 µM (E. coli; cutoff for positive-scoring molecules 3-fold increase, read-out: AK-based Prestwick Library Screening Results, E. coli (fold increase in extracellular AK activity)): 1.3 | fold induction at 50 µM ([2]; cutoff for positive-scoring molecules 3-fold increase, read-out: AK-based Prestwick Library Screening Results, S. aureus (fold increase in extracellular AK activity)): 1.2 | fold induction at 50 µM (E. cloacae; cutoff for positive-scoring molecules 3-fold increase, read-out: AK-based Prestwick Library Screening Results, E. cloacae (fold increase in extracellular AK activity)): 1.4 | fold induction at 50 µM (E. faecium; cutoff for positive-scoring molecules 3-fold increase, read-out: AK-based Prestwick Library Screening Results, E. faecium (fold increase in extracellular AK activity)): 1.1 | fold induction at 50 µM (K. pneumoniae; cutoff for positive-scoring molecules 3-fold increase, read-out: AK-based Prestwick Library Screening Results, K. pneumoniae (fold increase in extracellular AK activity)): 1

CCCC(C)(COC(N)=O)COC(=O)NC(C)C (centres unmarked) [Carisoprodol]
fold induction at 50 µM ([1]; planktonic A. baumannii, […], read-out: AK-based Prestwick Library Screening Results, A. baumannii (increase in extracellular AK activity)): 0.8 | fold induction at 50 µM (P. aeruginosa; planktonic P. aeruginosa, […], read-out: AK-based Prestwick Library Screening Results, P. aeruginosa (increase in extracellular AK activity)): 0.9 | fold induction at 50 µM (E. coli; planktonic E. coli, […], read-out: AK-based Prestwick Library Screening Results, E. coli (increase in extracellular AK activity)): 0.9 | fold induction at 50 µM ([2]; planktonic S. aureus, […], read-out: AK-based Prestwick Library Screening Results, S. aureus (increase in extracellular AK activity)): 0.7 | fold induction at 50 µM (E. cloacae; planktonic E. cloacae, […], read-out: AK-based Prestwick Library Screening Results, E. cloacae (increase in extracellular AK activity)): 0.8 | fold induction at 50 µM (E. faecium; planktonic E. faecium, […], read-out: AK-based Prestwick Library Screening Results, E. faecium (increase in extracellular AK activity)): 0.9 | fold induction at 50 µM (K. pneumoniae; planktonic K. pneumoniae, […], read-out: AK-based Prestwick Library Screening Results, K. pneumoniae (increase in extracellular AK activity)): 0.6

CN1[C@@H]2CC[C@H]1C[C@@H](O)C2 [Tropine]
fold induction at 50 µM ([1]; planktonic A. baumannii, […], read-out: AK-based Prestwick library screening result, A. baumannii (fold increase in extracellular AK activity)): 0.8 | fold induction at 50 µM (P. aeruginosa; planktonic P. aeruginosa, […], read-out: AK-based Prestwick library screening result, P. aeruginosa (fold increase in extracellular AK activity)): 0.8 | fold induction at 50 µM (E. coli; planktonic E. coli, […], read-out: AK-based Prestwick library screening result, E. coli (fold increase in extracellular AK activity)): 0.9 | fold induction at 50 µM ([2]; planktonic S. aureus, […], read-out: AK-based Prestwick library screening result, S. aureus (fold increase in extracellular AK activity)): 0.7 | fold induction at 50 µM (E. cloacae; planktonic E. cloacae, […], read-out: AK-based Prestwick library screening result, E. cloacae (fold increase in extracellular AK activity)): 1.2 | fold induction at 50 µM (E. faecium; planktonic E. faecium, […], read-out: AK-based Prestwick library screening result, E. faecium (fold increase in extracellular AK activity)): 0.9 | fold induction at 50 µM (K. pneumoniae; planktonic K. pneumoniae, […], read-out: AK-based Prestwick library screening result, K. pneumoniae (fold increase in extracellular AK activity)): 0.8

CC(Cc1ccc(O)cc1)NCC(O)c1cc(O)cc(O)c1 (centres unmarked) [Fenoterol hydrobromide]
fold induction at 50 µM ([1]; planktonic A. baumannii, 384-well, […], read-out: AK-based Prestwick Library Screening Results: A. baumannii (increase in extracellular AK activity)): 1.3 | fold induction at 50 µM (P. aeruginosa; planktonic P. aeruginosa, 384-well, […], read-out: AK-based Prestwick Library Screening Results: P. aeruginosa (increase in extracellular AK activity)): 1.1 | fold induction at 50 µM (E. coli; planktonic E. coli, 384-well, […], read-out: AK-based Prestwick Library Screening Results: E. coli (increase in extracellular AK activity)): 1.3 | fold induction at 50 µM ([2]; planktonic S. aureus, 384-well, […], read-out: AK-based Prestwick Library Screening Results: S. aureus (increase in extracellular AK activity)): 1 | fold induction at 50 µM (E. cloacae; planktonic E. cloacae, 384-well, […], read-out: AK-based Prestwick Library Screening Results: E. cloacae (increase in extracellular AK activity)): 1.4 | fold induction at 50 µM (E. faecium; planktonic E. faecium, 384-well, […], read-out: AK-based Prestwick Library Screening Results: E. faecium (increase in extracellular AK activity)): 1.1 | fold induction at 50 µM (K. pneumoniae; planktonic K. pneumoniae, 384-well, […], read-out: AK-based Prestwick Library Screening Results: K. pneumoniae (increase in extracellular AK activity)): 0.9

O=C(NCCN1CCOCC1)c1ccc(Cl)cc1 [Moclobemide]
fold induction at 50 µM ([1]; planktonic A. baumannii, cutoff for positive-scoring molecules 3-fold increase, read-out: AK-based Prestwick Library Screening Results, A. baumannii (increase in extracellular AK activity)): 0.7 | fold induction at 50 µM (P. aeruginosa; planktonic P. aeruginosa, cutoff for positive-scoring molecules 3-fold increase, read-out: AK-based Prestwick Library Screening Results, P. aeruginosa (increase in extracellular AK activity)): 0.8 | fold induction at 50 µM (E. coli; planktonic E. coli, cutoff for positive-scoring molecules 3-fold increase, read-out: AK-based Prestwick Library Screening Results, E. coli (increase in extracellular AK activity)): 0.9 | fold induction at 50 µM ([2]; planktonic S. aureus, cutoff for positive-scoring molecules 3-fold increase, read-out: AK-based Prestwick Library Screening Results, S. aureus (increase in extracellular AK activity)): 0.6 | fold induction at 50 µM (E. cloacae; planktonic E. cloacae, cutoff for positive-scoring molecules 3-fold increase, read-out: AK-based Prestwick Library Screening Results, E. cloacae (increase in extracellular AK activity)): 1.2 | fold induction at 50 µM (E. faecium; planktonic E. faecium, cutoff for positive-scoring molecules 3-fold increase, read-out: AK-based Prestwick Library Screening Results, E. faecium (increase in extracellular AK activity)): 0.9 | fold induction at 50 µM (K. pneumoniae; planktonic K. pneumoniae, cutoff for positive-scoring molecules 3-fold increase, read-out: AK-based Prestwick Library Screening Results, K. pneumoniae (increase in extracellular AK activity)): 0.6
